Results from PMC6100082, “Pyridine-Ureas as Potential Anticancer Agents: Synthesis and In Vitro Biological Evaluation” (Molecules : A Journal of Synthetic Chemistry and Natural …, 2018).

Assays:
Format in all cases: cell-based, human
NCI 58 cell line panel = assay: NCI one-dose SRB assay, whole panel / subpanel summary; settings: for inhibition at 10 µM: Homo sapiens, one dose, read-out: mean inhibition (mean % growth inhibition over NCI 58 cell line panel); for Mean Growth Percent: One Dose Mean Graph, 1.00E-5 Molar
Protocol: (§1) The structures of all the newly prepared pyridine-ureas 8a–n were submitted to the National Cancer Institute (NCI) Developmental Therapeutic Program. Eight compounds 8b, 8d, 8e, 8i, 8j and 8l–n were selected to be examined for their in vitro growth inhibitory activity. The anticancer assays were carried out according to the protocol of the Drug Evaluation Branch, NCI, Bethesda. The selected pyridine-ureas were tested at one dose primary anticancer assay against a panel of approximately 58 cancer lines (concentration 10^−5 M). The tested human cancer cell lines emerged from nine different cancer subtypes: leukemia, colon, melanoma, ovarian, lung, CNS, renal, breast and prostate cancers. The sulforhodamine B (SRB) protein assay was adopted to estimate the cell viability and growth. The results were reported as mean-graph of the percentage growth of the treated cells, and presented as percentage growth inhibition (GI%) caused by the test compounds (Table 2).
(§2) The anticancer assays were performed in accordance with the protocol of the Drug Evaluation Branch, NCI, Bethesda. A 48 h drug exposure protocol was used and sulforhodamine B (SRB) protein assay was applied to estimate the cell viability and growth, as reported earlier.

CCRF-CEM = assay: NCI one-dose SRB assay (Leukemia); settings: for Growth Percent: 1.00E-5 Molar; for inhibition at 10 µM: Homo sapiens, read-out: Percentage growth inhibition (GI%)
Protocol: as §1, §2

HL-60(TB) = assay: NCI one-dose SRB assay (Leukemia); settings: for Growth Percent: 1.00E-5 Molar; for inhibition at 10 µM: Homo sapiens, read-out: Percentage growth inhibition (GI%)
Protocol: as §1, §2

K-562 = assay: NCI one-dose SRB assay (Leukemia); settings: for inhibition at 10 µM: Homo sapiens, K562, K-562, 10 μM, read-out: Percentage growth inhibition (GI%); for Growth Percent: K-562, 1.00E-5 Molar
Protocol: as §1, §2

MOLT-4 = assay: NCI one-dose SRB assay (Leukemia); settings: for inhibition at 10 µM: Homo sapiens, MOLT-4, 10 μM, read-out: Percentage growth inhibition (GI%); for Growth Percent: MOLT-4, 1.00E-5 Molar
Protocol: as §1, §2

RPMI-8226 = assay: NCI one-dose SRB assay (Leukemia); settings: for inhibition at 10 µM: Homo sapiens, RPMI-8226, 10 μM, read-out: Percentage growth inhibition (GI%); for Growth Percent: RPMI-8226, 1.00E-5 Molar
Protocol: as §1, §2

SR = assay: NCI one-dose SRB assay (Leukemia); settings: for Growth Percent: 1.00E-5 Molar; for inhibition at 10 µM: Homo sapiens, read-out: Percentage growth inhibition (GI%)
Protocol: as §1, §2

SF-268 = assay: NCI one-dose SRB assay (CNS Cancer); settings: for inhibition at 10 µM: Homo sapiens, SF-268, 10 μM, read-out: Percentage growth inhibition (GI%); for Growth Percent: SF-268, 1.00E-5 Molar
Protocol: as §1, §2

SF-295 = assay: NCI one-dose SRB assay (CNS Cancer); settings: for inhibition at 10 µM: Homo sapiens, SF-295, 10 μM, read-out: Percentage growth inhibition (GI%); for Growth Percent: SF-295, 1.00E-5 Molar
Protocol: as §1, §2

SF-539 = assay: NCI one-dose SRB assay (CNS Cancer); settings: for inhibition at 10 µM: Homo sapiens, SF-539, 10 μM, read-out: Percentage growth inhibition (GI%); for Growth Percent: SF-539, 1.00E-5 Molar
Protocol: as §1, §2

SNB-19 = assay: NCI one-dose SRB assay (CNS Cancer); settings: for inhibition at 10 µM: Homo sapiens, SNB-19, 10 μM, read-out: Percentage growth inhibition (GI%); for Growth Percent: SNB-19, 1.00E-5 Molar
Protocol: as §1, §2

SNB-75 = assay: NCI one-dose SRB assay (CNS Cancer); settings: for inhibition at 10 µM: Homo sapiens, SNB-75, 10 μM, read-out: Percentage growth inhibition (GI%); for Growth Percent: SNB-75, 1.00E-5 Molar
Protocol: as §1, §2

U251 = assay: NCI one-dose SRB assay (CNS Cancer); settings: for inhibition at 10 µM: Homo sapiens, U-251, U251, 10 μM, read-out: Percentage growth inhibition (GI%); for Growth Percent: U251, 1.00E-5 Molar
Protocol: as §1, §2

IGROV1 = assay: NCI one-dose SRB assay (Ovarian Cancer); settings: for inhibition at 10 µM: Homo sapiens, IGROV-1, IGROV1, 10 μM, read-out: Percentage growth inhibition (GI%); for Growth Percent: IGROV1, 1.00E-5 Molar
Protocol: as §1, §2

NCI/ADR-RES = assay: NCI one-dose SRB assay (Ovarian Cancer); settings: for Growth Percent: 1.00E-5 Molar; for inhibition at 10 µM: Homo sapiens, read-out: Percentage growth inhibition (GI%)
Protocol: as §1, §2

OVCAR-3 = assay: NCI one-dose SRB assay (Ovarian Cancer); settings: for inhibition at 10 µM: Homo sapiens, OVCAR-3, 10 μM, read-out: Percentage growth inhibition (GI%); for Growth Percent: OVCAR-3, 1.00E-5 Molar
Protocol: as §1, §2

OVCAR-4 = assay: NCI one-dose SRB assay (Ovarian Cancer); settings: for inhibition at 10 µM: Homo sapiens, OVCAR-4, 10 μM, read-out: Percentage growth inhibition (GI%); for Growth Percent: OVCAR-4, 1.00E-5 Molar
Protocol: as §1, §2

OVCAR-5 = assay: NCI one-dose SRB assay (Ovarian Cancer); settings: for inhibition at 10 µM: Homo sapiens, OVCAR-5, 10 μM, read-out: Percentage growth inhibition (GI%); for Growth Percent: OVCAR-5, 1.00E-5 Molar
Protocol: as §1, §2

OVCAR-8 = assay: NCI one-dose SRB assay (Ovarian Cancer); settings: for inhibition at 10 µM: Homo sapiens, OVCAR-8, 10 μM, read-out: Percentage growth inhibition (GI%); for Growth Percent: OVCAR-8, 1.00E-5 Molar
Protocol: as §1, §2

SK-OV-3 = assay: NCI one-dose SRB assay (Ovarian Cancer); settings: for inhibition at 10 µM: Homo sapiens, SK-OV-3, 10 μM, read-out: Percentage growth inhibition (GI%); for Growth Percent: SK-OV-3, 1.00E-5 Molar
Protocol: as §1, §2

786-0 = assay: NCI one-dose SRB assay (Renal Cancer); settings: for Growth Percent: 786-0, 1.00E-5 Molar; for inhibition at 10 µM: Homo sapiens, 786-0, 10 μM, read-out: Percentage growth inhibition (GI%)
Protocol: as §1, §2

A498 = assay: NCI one-dose SRB assay (Renal Cancer); settings: for Growth Percent: A498, 1.00E-5 Molar; for inhibition at 10 µM: Homo sapiens, A498, 10 μM, read-out: Percentage growth inhibition (GI%)
Protocol: as §1, §2

RXF 393 = assay: NCI one-dose SRB assay (Renal Cancer); settings: for inhibition at 10 µM: Homo sapiens, RXF 393, 10 μM, read-out: Percentage growth inhibition (GI%); for Growth Percent: RXF 393, 1.00E-5 Molar
Protocol: as §1, §2

SN12C = assay: NCI one-dose SRB assay (Renal Cancer); settings: for Growth Percent: 1.00E-5 Molar; for inhibition at 10 µM: Homo sapiens, read-out: Percentage growth inhibition (GI%)
Protocol: as §1, §2

TK-10 = assay: NCI one-dose SRB assay (Renal Cancer); settings: for inhibition at 10 µM: Homo sapiens, TK-10, 10 μM, read-out: Percentage growth inhibition (GI%); for Growth Percent: TK-10, 1.00E-5 Molar
Protocol: as §1, §2

UO-31 = assay: NCI one-dose SRB assay (Renal Cancer); settings: for inhibition at 10 µM: Homo sapiens, UO-31, 10 μM, read-out: Percentage growth inhibition (GI%); for Growth Percent: UO-31, 1.00E-5 Molar
Protocol: as §1, §2

COc1cccc(NC(=O)Nc2ccc(-c3ccc(OC)c(OC)c3)nc2C)c1 [Compound 8m, 1-(6-(3,4-Dimethoxyphenyl)-2-methylpyridin-3-yl)-3-(3-methoxyphenyl) Urea]
inhibition at 10 µM (NCI 58 cell line panel): 8%
Mean Growth Percent (NCI 58 cell line panel): 92.83%
Growth Percent (CCRF-CEM): 89.11%
inhibition at 10 µM (CCRF-CEM): 11%
Growth Percent (HL-60(TB)): 73.33%
inhibition at 10 µM (HL-60(TB)): 27%
inhibition at 10 µM (K-562): 22%
Growth Percent (K-562): 78.49%
inhibition at 10 µM (MOLT-4): 35%
Growth Percent (MOLT-4): 65.34%
inhibition at 10 µM (RPMI-8226): 26%
Growth Percent (RPMI-8226): 74.18%
Growth Percent (SR): 82.12%
inhibition at 10 µM (SR): 18%
inhibition at 10 µM (SF-268): < 10%
Growth Percent (SF-268): 94.56%
inhibition at 10 µM (SF-295): < 10%
Growth Percent (SF-295): 99.68%
inhibition at 10 µM (SF-539): < 10%
Growth Percent (SF-539): 93.97%
inhibition at 10 µM (SNB-19): < 10%
Growth Percent (SNB-19): 115.50%
inhibition at 10 µM (SNB-75): < 10%
Growth Percent (SNB-75): 104.39%
inhibition at 10 µM (U251): < 10%
Growth Percent (U251): 94.15%
inhibition at 10 µM (IGROV1): < 10%
Growth Percent (IGROV1): 112.08%
Growth Percent (NCI/ADR-RES): 92.25%
inhibition at 10 µM (NCI/ADR-RES): < 10%
inhibition at 10 µM (OVCAR-3): < 10%
Growth Percent (OVCAR-3): 101.69%
inhibition at 10 µM (OVCAR-4): < 10%
Growth Percent (OVCAR-4): 126.33%
inhibition at 10 µM (OVCAR-5): < 10%
Growth Percent (OVCAR-5): 104.54%
inhibition at 10 µM (OVCAR-8): < 10%
Growth Percent (OVCAR-8): 102.37%
inhibition at 10 µM (SK-OV-3): < 10%
Growth Percent (SK-OV-3): 99.49%
Growth Percent (786-0): 92.27%
inhibition at 10 µM (786-0): < 10%
Growth Percent (A498): 85.18%
inhibition at 10 µM (A498): 15%
inhibition at 10 µM (RXF 393): < 10%
Growth Percent (RXF 393): 108.45%
Growth Percent (SN12C): 93.61%
inhibition at 10 µM (SN12C): < 10%
inhibition at 10 µM (TK-10): < 10%
Growth Percent (TK-10): 96.16%
inhibition at 10 µM (UO-31): 20%
Growth Percent (UO-31): 80.45%

COc1ccc(NC(=O)Nc2ccc(-c3ccc(OC)c(OC)c3)nc2C)cc1 [Compound 8n, 1-(6-(3,4-Dimethoxyphenyl)-2-methylpyridin-3-yl)-3-(4-methoxyphenyl) Urea]
inhibition at 10 µM (NCI 58 cell line panel): 22 to 34%
Mean Growth Percent (NCI 58 cell line panel): 66.18%
Growth Percent (CCRF-CEM): 97.16%
inhibition at 10 µM (CCRF-CEM): < 10%
Growth Percent (HL-60(TB)): 85.74%
inhibition at 10 µM (HL-60(TB)): 15%
inhibition at 10 µM (K-562): 27%
Growth Percent (K-562): 73.25%
inhibition at 10 µM (MOLT-4): 15%
Growth Percent (MOLT-4): 85.62%
inhibition at 10 µM (RPMI-8226): 17%
Growth Percent (RPMI-8226): 83.77%
Growth Percent (SR): 57.29%
inhibition at 10 µM (SR): 43%
inhibition at 10 µM (SF-268): 41%
Growth Percent (SF-268): 59.25%
inhibition at 10 µM (SF-295): < 10%
Growth Percent (SF-295): 101.75%
inhibition at 10 µM (SF-539): 30%
Growth Percent (SF-539): 70.63%
inhibition at 10 µM (SNB-19): 29%
Growth Percent (SNB-19): 71.47%
inhibition at 10 µM (SNB-75): 53%
Growth Percent (SNB-75): 47.52%
inhibition at 10 µM (U251): 78%
Growth Percent (U251): 22.08%
inhibition at 10 µM (IGROV1): 23%
Growth Percent (IGROV1): 77.14%
Growth Percent (NCI/ADR-RES): 84.96%
inhibition at 10 µM (NCI/ADR-RES): 16%
inhibition at 10 µM (OVCAR-3): < 10%
Growth Percent (OVCAR-3): 102.08%
inhibition at 10 µM (OVCAR-4): 71%
Growth Percent (OVCAR-4): 29.55%
inhibition at 10 µM (OVCAR-5): < 10%
Growth Percent (OVCAR-5): 98.04%
inhibition at 10 µM (OVCAR-8): 53%
Growth Percent (OVCAR-8): 47.38%
inhibition at 10 µM (SK-OV-3): 26%
Growth Percent (SK-OV-3): 74.76%
Growth Percent (786-0): 11.07%
inhibition at 10 µM (786-0): 89%
Growth Percent (A498): 71.94%
inhibition at 10 µM (A498): 29%
inhibition at 10 µM (RXF 393): 42%
Growth Percent (RXF 393): 58.20%
Growth Percent (SN12C): 64.38%
inhibition at 10 µM (SN12C): 36%
inhibition at 10 µM (TK-10): 40%
Growth Percent (TK-10): 60.42%
inhibition at 10 µM (UO-31): 19%
Growth Percent (UO-31): 81.72%
